Experimental data from the supplement of paper PMC10307832.

How the values were obtained:
Assay in all cases: relative viability (nuclei count vs DMSO), 5 days (fraction); higher = more cells survive
FH535 + Pictilisib = compound: CC1=C(C=CC(=C1)[N+](=O)[O-])NS(=O)(=O)C2=C(C=CC(=C2)Cl)Cl [FH535] + CS(=O)(=O)N1CCN(Cc2cc3nc(-c4cccc5[nH]ncc45)nc(N4CCOCC4)c3s2)CC1 [Pictilisib] (partner 1 µM)
Summary of the method: (§1)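 Each reported value is a median over duplicate plates. It expresses relative viability: treated-well nuclei count divided by vehicle-well nuclei count. Lung cancer cell lines in 1536-well plates were dosed by pin tool a day after seeding, alone with one drug or with a fixed anchor-drug dose plus five library-drug doses (not always all listed) in √10 steps, and nuclei were counted after 5 days.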

FH535 + Tozasertib = compound: CC1=C(C=CC(=C1)[N+](=O)[O-])NS(=O)(=O)C2=C(C=CC(=C2)Cl)Cl [FH535] + Cc1cc(Nc2cc(N3CCN(C)CC3)nc(Sc3ccc(NC(=O)C4CC4)cc3)n2)n[nH]1 [Tozasertib] (partner 0.1 µM)
Summary of the method: as §1

FH535 + Alpelisib = compound: CC1=C(C=CC(=C1)[N+](=O)[O-])NS(=O)(=O)C2=C(C=CC(=C2)Cl)Cl [FH535] + Cc1nc(NC(=O)N2CCC[C@H]2C(N)=O)sc1-c1ccnc(C(C)(C)C(F)(F)F)c1 [Alpelisib] (partner 2 µM)
Summary of the method: as §1

FH535 + Phenformin = compound: CC1=C(C=CC(=C1)[N+](=O)[O-])NS(=O)(=O)C2=C(C=CC(=C2)Cl)Cl [FH535] + N=C(N)NC(=N)NCCc1ccccc1 [Phenformin] (partner 250 µM)
Summary of the method: as §1

FH535 + Vorinostat = compound: CC1=C(C=CC(=C1)[N+](=O)[O-])NS(=O)(=O)C2=C(C=CC(=C2)Cl)Cl [FH535] + O=C(CCCCCCC(=O)Nc1ccccc1)NO [Vorinostat] (partner 1 µM)
Summary of the method: as §1

Cell Line	relative viability (FH535 + Pictilisib; first compound 0.04 µM)	relative viability (FH535 + Pictilisib; first compound 0.1265 µM)	relative viability (FH535 + Pictilisib; first compound 0.4 µM)	relative viability (FH535 + Pictilisib; first compound 1.265 µM)	relative viability (FH535 + Tozasertib; first compound 0.04 µM)	relative viability (FH535 + Tozasertib; first compound 0.1265 µM)	relative viability (FH535 + Tozasertib; first compound 0.4 µM)	relative viability (FH535 + Tozasertib; first compound 1.265 µM)	relative viability (FH535 + Alpelisib; first compound 0.04 µM)	relative viability (FH535 + Alpelisib; first compound 0.1265 µM)	relative viability (FH535 + Alpelisib; first compound 0.4 µM)	relative viability (FH535 + Alpelisib; first compound 1.265 µM)	relative viability (FH535 + Phenformin; first compound 0.04 µM)	relative viability (FH535 + Phenformin; first compound 0.1265 µM)	relative viability (FH535 + Phenformin; first compound 0.4 µM)	relative viability (FH535 + Phenformin; first compound 1.265 µM)	relative viability (FH535 + Vorinostat; first compound 0.04 µM)	relative viability (FH535 + Vorinostat; first compound 0.1265 µM)	relative viability (FH535 + Vorinostat; first compound 0.4 µM)	relative viability (FH535 + Vorinostat; first compound 1.265 µM)
EPLC-272H	0.263	0.349	0.299	0.249	0.148	0.249	0.194	0.214	0.951	0.978	1.02	0.963	0.242	0.352	0.234	0.159	0.442	0.42	0.437	0.406
H3255	0.352	0.466	0.445	0.413	0.62	0.716	0.659	0.452	0.468	0.805	0.705	0.633	0.31	0.423	0.374	0.32	0.804	0.753	0.729	0.654
HARA	0.429	0.665	0.368	0.458	0.0901	0.133	0.128	0.0965	0.785	0.817	0.817	0.561	0.398	0.368	0.269	0.205	0.376	0.489	0.511	0.341
HCC-15	0.672	0.668	0.674	0.594	0.457	0.414	0.409	0.482	0.864	0.819	0.85	0.646	0.432	0.443	0.343	0.213	0.733	0.85	0.838	0.696
HCC-44	0.67	0.556	0.564	0.538	0.916	1	0.933	0.756	0.779	0.843	0.741	0.566	0.242	0.191	0.125	0.176	1.11	1.1	1.03	0.818
HCC-78	0.193	0.223	0.187	0.204	0.462	0.397	0.409	0.414	0.345	0.396	0.361	0.302	0.626	0.783	0.63	0.592	0.408	0.429	0.479	0.414
HCC-366	0.132	0.137	0.116	0.125	0.0788	0.106	0.123	0.0854	0.35	0.485	0.478	0.349	0.607	0.522	0.48	0.41	0.131	0.416	0.34	0.261
HCC-827	0.894	1	0.824	0.728	0.425	0.452	0.433	0.347	0.954	0.972	0.926	0.446	0.407	0.387	0.383	0.313	0.701	0.846	0.869	0.664
HOP-62	0.505	0.606	0.64	0.676	0.407	0.362	0.348	0.412	0.931	0.948	0.778	0.694	0.682	0.668	0.552	0.401	0.5	0.681	0.557	0.563
LC-2-ad	0.462	0.466	0.162	0.33	0.437	0.439	0.578	0.457	0.489	0.963	0.898	0.618	0.482	0.58	0.425	0.368	0.603	0.714	0.677	0.521
LCLC-97TM1	–	0.124	0.176	0.206	0.229	0.284	0.282	0.161	–	0.225	0.224	0.181	0.409	0.37	0.334	0.313	0.203	0.568	0.706	0.745
LCLC-103H	0.598	0.608	0.561	0.535	0.417	0.521	0.516	0.453	0.906	0.935	1.01	0.927	0.326	0.286	0.255	0.262	0.569	0.781	0.694	0.666
LK-2	0.546	0.573	0.58	0.489	0.166	0.172	0.169	0.201	0.915	1.06	1.09	1.01	0.35	0.521	0.495	0.211	0.166	0.301	0.29	0.485
LOU-NH91	0.471	0.554	0.48	0.339	0.634	0.68	0.633	0.33	0.714	0.793	0.679	0.409	0.554	0.471	0.424	0.392	0.877	0.982	0.652	0.524
LU99A	0.291	0.324	0.335	0.295	0.297	0.281	0.329	0.273	0.457	0.498	0.534	0.522	0.55	0.856	0.764	0.729	0.356	0.484	0.487	0.464
